We go through one compound from ChEMBL document CHEMBL3259572, “Euodenine A: a small-molecule agonist of human TLR4” (J Med Chem, 2014).

The subject of data set [1] is PBMC. Description: Induction of TNFalpha production in human PBMC at 10 uM by ELISA. Format: functional, cell-based. (ELISA stands for enzyme-linked immunosorbent assay.)
The target in data set [2] is T1, Toll-like receptor 9 (Homo sapiens) (UniProt Q9NR96).
T1 sequence (whole entry): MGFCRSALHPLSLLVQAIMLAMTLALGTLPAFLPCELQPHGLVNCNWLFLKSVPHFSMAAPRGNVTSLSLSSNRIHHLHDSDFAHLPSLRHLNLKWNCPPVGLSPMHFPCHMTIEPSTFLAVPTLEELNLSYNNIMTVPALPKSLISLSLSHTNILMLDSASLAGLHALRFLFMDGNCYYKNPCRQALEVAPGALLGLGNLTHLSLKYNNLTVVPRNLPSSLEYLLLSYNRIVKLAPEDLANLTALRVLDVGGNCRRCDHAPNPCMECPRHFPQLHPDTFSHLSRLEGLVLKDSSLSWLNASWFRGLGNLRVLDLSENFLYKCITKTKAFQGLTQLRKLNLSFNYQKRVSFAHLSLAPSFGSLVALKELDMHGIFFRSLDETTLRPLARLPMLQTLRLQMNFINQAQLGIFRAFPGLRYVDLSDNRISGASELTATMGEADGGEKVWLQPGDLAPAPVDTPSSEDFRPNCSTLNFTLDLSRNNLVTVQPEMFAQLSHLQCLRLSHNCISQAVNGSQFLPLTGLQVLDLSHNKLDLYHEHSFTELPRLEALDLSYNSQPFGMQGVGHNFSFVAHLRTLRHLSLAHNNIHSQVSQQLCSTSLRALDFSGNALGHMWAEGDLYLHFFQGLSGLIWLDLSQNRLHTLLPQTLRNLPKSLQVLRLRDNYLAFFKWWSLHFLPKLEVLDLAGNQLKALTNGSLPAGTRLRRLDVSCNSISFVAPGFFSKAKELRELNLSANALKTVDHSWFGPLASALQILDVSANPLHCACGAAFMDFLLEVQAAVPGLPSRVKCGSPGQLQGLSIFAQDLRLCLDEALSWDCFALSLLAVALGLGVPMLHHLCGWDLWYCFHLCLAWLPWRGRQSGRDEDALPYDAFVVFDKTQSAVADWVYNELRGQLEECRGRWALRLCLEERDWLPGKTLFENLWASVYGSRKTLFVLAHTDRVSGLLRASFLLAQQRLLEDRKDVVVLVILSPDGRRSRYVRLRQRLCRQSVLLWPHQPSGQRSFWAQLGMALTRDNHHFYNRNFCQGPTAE
Description: Agonist activity at human recombinant TLR9 expressed in HEK293 cells at 10 uM by SEAP reporter assay. Type of data set: cell-based.

Data set [3] deals with T2, Toll-like receptor 4 (Homo sapiens, UniProt O00206). Description: Intrinsic activity at human recombinant TLR4 expressed in HEK293 cells by SEAP reporter assay relative to LPS. Type of data set: cell-based. In general terms: In a reporter assay the amount or activity of a reporter protein is the signal.
Data set [4] deals with PBMC. The experiment in a line: Cytotoxicity against PHA-stimulated human PBMC at 20 uM by WST-1 cell proliferation assay. Format: cell-based.
The next data set addresses TLR2/TLR6 (Homo sapiens) (UniProt O60603+Q9Y2C9). The experiment in a line: Agonist activity at human recombinant TLR2/6 expressed in HEK293 cells at 10 uM by SEAP reporter assay. Type of data set: cell-based.
Data set [5] deals with Toll-like receptor 2 (Homo sapiens) (UniProt O60603). Description: Agonist activity at human recombinant TLR2 expressed in HEK293 cells by SEAP reporter assay. Type of data set: cell-based.
In data set [6] the target is T2, Toll-like receptor 4. The experiment in a line: Agonist activity at human recombinant TLR4 expressed in HEK293 cells by SEAP reporter assay. Format: cell-based.
Data set [7] has as its system PBMC. Description: Induction of IL-10 production in human PBMC at 10 uM by ELISA. Format: functional, cell-based.

Calls of active or inactive are those of the source. No cut-off for these calls is given here.

T2 sequence (O00206 whole entry): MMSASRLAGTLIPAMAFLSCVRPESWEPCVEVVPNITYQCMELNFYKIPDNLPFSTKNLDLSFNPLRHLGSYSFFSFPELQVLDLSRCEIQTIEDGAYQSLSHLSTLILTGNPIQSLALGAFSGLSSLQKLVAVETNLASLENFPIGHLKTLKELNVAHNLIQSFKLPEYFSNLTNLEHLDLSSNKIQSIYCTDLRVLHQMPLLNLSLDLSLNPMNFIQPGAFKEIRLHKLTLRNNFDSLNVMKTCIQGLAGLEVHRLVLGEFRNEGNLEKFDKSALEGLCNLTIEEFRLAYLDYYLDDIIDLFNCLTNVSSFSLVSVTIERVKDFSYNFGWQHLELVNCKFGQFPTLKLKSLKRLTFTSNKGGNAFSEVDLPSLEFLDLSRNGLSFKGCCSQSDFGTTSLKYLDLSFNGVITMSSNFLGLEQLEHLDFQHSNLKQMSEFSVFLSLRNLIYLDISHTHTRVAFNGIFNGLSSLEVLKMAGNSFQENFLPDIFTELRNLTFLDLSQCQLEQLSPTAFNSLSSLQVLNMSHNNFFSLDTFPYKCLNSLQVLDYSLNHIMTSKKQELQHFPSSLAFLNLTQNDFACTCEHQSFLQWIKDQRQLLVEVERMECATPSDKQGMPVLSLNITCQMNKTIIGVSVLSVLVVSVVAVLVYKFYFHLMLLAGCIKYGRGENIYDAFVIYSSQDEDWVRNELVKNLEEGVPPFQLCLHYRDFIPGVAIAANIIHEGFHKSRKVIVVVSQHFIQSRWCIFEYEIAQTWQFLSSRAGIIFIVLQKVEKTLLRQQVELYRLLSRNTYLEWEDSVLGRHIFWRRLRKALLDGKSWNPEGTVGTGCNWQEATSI
Sequence of Toll-like receptor 2 (Homo sapiens) (O60603 whole entry): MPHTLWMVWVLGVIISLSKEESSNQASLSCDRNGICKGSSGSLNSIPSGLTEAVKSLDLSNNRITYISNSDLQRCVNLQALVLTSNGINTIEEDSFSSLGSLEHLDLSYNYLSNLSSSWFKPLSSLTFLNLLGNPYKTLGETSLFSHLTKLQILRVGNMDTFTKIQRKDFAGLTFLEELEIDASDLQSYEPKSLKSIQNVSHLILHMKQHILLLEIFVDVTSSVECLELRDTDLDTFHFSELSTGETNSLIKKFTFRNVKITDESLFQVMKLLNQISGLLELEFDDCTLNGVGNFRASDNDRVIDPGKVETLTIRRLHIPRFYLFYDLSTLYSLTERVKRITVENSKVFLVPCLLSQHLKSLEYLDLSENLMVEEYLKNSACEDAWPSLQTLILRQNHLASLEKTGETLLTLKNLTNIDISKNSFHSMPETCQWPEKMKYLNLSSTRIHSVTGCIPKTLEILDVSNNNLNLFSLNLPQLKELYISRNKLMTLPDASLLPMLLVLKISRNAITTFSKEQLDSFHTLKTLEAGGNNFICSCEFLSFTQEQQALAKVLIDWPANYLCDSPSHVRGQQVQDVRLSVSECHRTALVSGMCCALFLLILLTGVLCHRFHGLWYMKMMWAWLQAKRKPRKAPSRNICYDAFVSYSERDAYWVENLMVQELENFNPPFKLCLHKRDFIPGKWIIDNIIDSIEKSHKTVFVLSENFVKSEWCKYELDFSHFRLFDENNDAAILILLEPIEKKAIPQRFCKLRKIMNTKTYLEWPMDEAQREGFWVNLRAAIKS

One may read the EC50 as the concentration at which the effect is half-maximal. For `COc1cc([C@@H]2[C@@H](C)[C@H]3[C@@H]2c2c(c4ccccc4[nH]c2=O)OC3(C)C)cc(OC)c1OC`, the result in the data set with PBMC [1] and in the data set on PBMC [7] was Active. The outcome (in data set [2]; on TLR2/TLR6 (Homo sapiens); in data set [5]) was inactive. The Intrinsic activity on Toll-like receptor 4 [3] amounted to 0.95. In the data set with PBMC [4], the Activity result is given as “Non-toxic”. The EC50 at Toll-like receptor 4 [6] amounted to 3.9 µM.
